In PubChem BioAssay AID2060886 (Molecular Pharmacology Branch, DTP, NCI, 2025):

Tested on: 653999-131-R-J2-PDC complex spheroids, growth inhibition
Experiment: Anticancer human tumor 653999-131-R-J2-PDC patient-derived lung adenocarcinoma cell line growth inhibition [RAS]
Details: for viability, T/C: stronger effect = lower value
Method in brief: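 Tumour cells grown as complex spheroids with HUVEC endothelial cells and mesenchymal stem cells, treated with RAS pathway inhibitor combinations. Each agent spans half-log steps from near clinical Cmax, or 10 microM where Cmax is unknown.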

[1] = curve of first compound, second compound 0.000949 µM
[2] = curve of first compound, second compound 0.003 µM
[3] = curve of first compound, second compound 0.00949 µM
[4] = curve of first compound, second compound 0.03 µM
[5] = curve of first compound, second compound 0.0949 µM
[6] = curve of first compound, second compound 0.3 µM
[7] = second compound 0.000949 µM, first compound 0.00316 µM
[8] = second compound 0.000949 µM, first compound 0.01 µM
[9] = second compound 0.000949 µM, first compound 0.0316 µM
[10] = second compound 0.000949 µM, first compound 0.1 µM
[11] = second compound 0.000949 µM, first compound 0.316 µM
[12] = second compound 0.000949 µM, first compound 1 µM
[13] = second compound 0.003 µM, first compound 0.00316 µM
[14] = second compound 0.003 µM, first compound 0.01 µM
[15] = second compound 0.003 µM, first compound 0.0316 µM
[16] = second compound 0.003 µM, first compound 0.1 µM
[17] = second compound 0.003 µM, first compound 0.316 µM
[18] = second compound 0.003 µM, first compound 1 µM
[19] = second compound 0.00949 µM, first compound 0.00316 µM
[20] = second compound 0.00949 µM, first compound 0.01 µM
[21] = second compound 0.00949 µM, first compound 0.0316 µM
[22] = second compound 0.00949 µM, first compound 0.1 µM
[23] = second compound 0.00949 µM, first compound 0.316 µM
[24] = second compound 0.00949 µM, first compound 1 µM
[25] = second compound 0.03 µM, first compound 0.00316 µM
[26] = second compound 0.03 µM, first compound 0.01 µM
[27] = second compound 0.03 µM, first compound 0.0316 µM
[28] = second compound 0.03 µM, first compound 0.1 µM
[29] = second compound 0.03 µM, first compound 0.316 µM
[30] = second compound 0.03 µM, first compound 1 µM
[31] = second compound 0.0949 µM, first compound 0.00316 µM
[32] = second compound 0.0949 µM, first compound 0.01 µM
[33] = second compound 0.0949 µM, first compound 0.0316 µM
[34] = second compound 0.0949 µM, first compound 0.1 µM
[35] = second compound 0.0949 µM, first compound 0.316 µM
[36] = second compound 0.0949 µM, first compound 1 µM
[37] = second compound 0.3 µM, first compound 0.00316 µM
[38] = second compound 0.3 µM, first compound 0.01 µM
[39] = second compound 0.3 µM, first compound 0.0316 µM
[40] = second compound 0.3 µM, first compound 0.1 µM
[41] = second compound 0.3 µM, first compound 0.316 µM
[42] = second compound 0.3 µM, first compound 1 µM
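Further: spheroids exposed to the agents for seven days before the readout.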

CCn1c(-c2cccnc2C(C)OC)c2c3cc(ccc31)N1CCOC(CC(NC(=O)C(C(C)C)N(C)C(=O)C3(F)CCN(C(=O)C#CC(C)(C)N(C)C)CC3)C(=O)N3CCCC(N3)C(=O)OCC(C)(C)C2)C1 (stereo not drawn)
viability, T/C (compound 0.003 µM): 95.1% [middle of 8 runs] | viability, T/C (compound 0.00949 µM): 99.5% [middle of 8 runs] | viability, T/C (compound 0.03 µM): 104% [middle of 8 runs] | viability, T/C (compound 0.0949 µM): 99.9% [middle of 8 runs] | viability, T/C (compound 0.3 µM): 107% [middle of 8 runs] | IC50 (compound alone, run of 08/20/2024): > 300 nM

CCN1CCN(Cc2ccc(Nc3ncc(F)c(-c4cc(F)c5nc(C)n(C(C)C)c5c4)n3)nc2)CC1 + CCn1c(-c2cccnc2C(C)OC)c2c3cc(ccc31)N1CCOC(CC(NC(=O)C(C(C)C)N(C)C(=O)C3(F)CCN(C(=O)C#CC(C)(C)N(C)C)CC3)C(=O)N3CCCC(N3)C(=O)OCC(C)(C)C2)C1
IC50 [1]: > 1000 nM | IC50 [2]: > 1000 nM | IC50 [3]: > 1000 nM | IC50 [4]: > 1000 nM | IC50 [5]: > 1000 nM | IC50 [6]: > 1000 nM | viability, T/C [7]: 101% | viability, T/C [8]: 87.8% | viability, T/C [9]: 75.3% | viability, T/C [10]: 67.6% | viability, T/C [11]: 73.2% | viability, T/C [12]: 78.4% | viability, T/C [13]: 98.5% | viability, T/C [14]: 76.9% | viability, T/C [15]: 75.5% | viability, T/C [16]: 75% | viability, T/C [17]: 71.8% | viability, T/C [18]: 92.9% | viability, T/C [19]: 105% | viability, T/C [20]: 99.5% | viability, T/C [21]: 64.8% | viability, T/C [22]: 77.6% | viability, T/C [23]: 80% | viability, T/C [24]: 82.2% | viability, T/C [25]: 95.1% | viability, T/C [26]: 75.7% | viability, T/C [27]: 79.2% | viability, T/C [28]: 64.2% | viability, T/C [29]: 89.9% | viability, T/C [30]: 79.1% | viability, T/C [31]: 90.9% | viability, T/C [32]: 85.6% | viability, T/C [33]: 79.5% | viability, T/C [34]: 69.3% | viability, T/C [35]: 83.7% | viability, T/C [36]: 81.3% | viability, T/C [37]: 95.4% | viability, T/C [38]: 81.6% | viability, T/C [39]: 73.7% | viability, T/C [40]: 60.8% | viability, T/C [41]: 84.6% | viability, T/C [42]: 77.6%

O=C(c1ccc(F)c(F)c1Nc1ccc(I)cc1F)N1CC(O)([C@@H]2CCCCN2)C1 + CCn1c(-c2cccnc2C(C)OC)c2c3cc(ccc31)N1CCOC(CC(NC(=O)C(C(C)C)N(C)C(=O)C3(F)CCN(C(=O)C#CC(C)(C)N(C)C)CC3)C(=O)N3CCCC(N3)C(=O)OCC(C)(C)C2)C1
IC50 [1]: 110 nM | IC50 [2]: 122 nM | IC50 [3]: 76.6 nM | IC50 [4]: 81.4 nM | IC50 [5]: 120 nM | IC50 [6]: 82 nM | viability, T/C [7]: 83.6% | viability, T/C [8]: 74.5% | viability, T/C [9]: 68.5% | viability, T/C [10]: 55.8% | viability, T/C [11]: 20.6% | viability, T/C [12]: 12% | viability, T/C [13]: 82.5% | viability, T/C [14]: 60% | viability, T/C [15]: 71.3% | viability, T/C [16]: 50.8% | viability, T/C [17]: 38.4% | viability, T/C [18]: 15.4% | viability, T/C [19]: 92.9% | viability, T/C [20]: 65.2% | viability, T/C [21]: 63.7% | viability, T/C [22]: 52.3% | viability, T/C [23]: 30.1% | viability, T/C [24]: 13.2% | viability, T/C [25]: 77.4% | viability, T/C [26]: 57.8% | viability, T/C [27]: 64.5% | viability, T/C [28]: 49.6% | viability, T/C [29]: 26.2% | viability, T/C [30]: 14.2% | viability, T/C [31]: 62% | viability, T/C [32]: 68.1% | viability, T/C [33]: 66.5% | viability, T/C [34]: 51.7% | viability, T/C [35]: 31.4% | viability, T/C [36]: 13.5% | viability, T/C [37]: 65.3% | viability, T/C [38]: 70.2% | viability, T/C [39]: 73.1% | viability, T/C [40]: 43.4% | viability, T/C [41]: 23.5% | viability, T/C [42]: 10.4%

CCN1CCN(Cc2ccc(Nc3ncc(F)c(-c4cc(F)c5nc(C)n(C(C)C)c5c4)n3)nc2)CC1
viability, T/C (compound 0.00316 µM): 87.8% [middle of 4 runs] | viability, T/C (compound 0.01 µM): 96.6% [middle of 4 runs] | viability, T/C (compound 0.0316 µM): 73.8% [middle of 4 runs] | viability, T/C (compound 0.316 µM): 80.7% [middle of 4 runs] | viability, T/C (compound 1 µM): 83.8% [middle of 4 runs] | IC50 (curve of compound): > 1000 nM

C[C@@H](NC(=O)c1ncnc(N)c1Cl)c1ncc(C(=O)Nc2cc(C(F)(F)F)c(Cl)cn2)s1 + CCn1c(-c2cccnc2C(C)OC)c2c3cc(ccc31)N1CCOC(CC(NC(=O)C(C(C)C)N(C)C(=O)C3(F)CCN(C(=O)C#CC(C)(C)N(C)C)CC3)C(=O)N3CCCC(N3)C(=O)OCC(C)(C)C2)C1
IC50 [1]: > 10000 nM | IC50 [2]: > 10000 nM | IC50 [3]: > 10000 nM | IC50 [4]: > 10000 nM | IC50 [5]: > 10000 nM | IC50 [6]: > 10000 nM | viability, T/C [9]: 95.5% | viability, T/C [10]: 123% | viability, T/C [11]: 95.5% | viability, T/C [12]: 101% | viability, T/C (second compound 0.000949 µM, first compound 3.16 µM): 106% | viability, T/C (second compound 0.000949 µM, first compound 10 µM): 83.6% | viability, T/C [15]: 105% | viability, T/C [16]: 104% | viability, T/C [17]: 126% | viability, T/C [18]: 104% | viability, T/C (second compound 0.003 µM, first compound 3.16 µM): 100% | viability, T/C (second compound 0.003 µM, first compound 10 µM): 73.7% | viability, T/C [21]: 113% | viability, T/C [22]: 115% | viability, T/C [23]: 119% | viability, T/C [24]: 112% | viability, T/C (second compound 0.00949 µM, first compound 3.16 µM): 108% | viability, T/C (second compound 0.00949 µM, first compound 10 µM): 94.8% | viability, T/C [27]: 111% | viability, T/C [28]: 109% | viability, T/C [29]: 107% | viability, T/C [30]: 107% | viability, T/C (second compound 0.03 µM, first compound 3.16 µM): 100% | viability, T/C (second compound 0.03 µM, first compound 10 µM): 95.3% | viability, T/C [33]: 113% | viability, T/C [34]: 97.3% | viability, T/C [35]: 121% | viability, T/C [36]: 107% | viability, T/C (second compound 0.0949 µM, first compound 3.16 µM): 121% | viability, T/C (second compound 0.0949 µM, first compound 10 µM): 91.5% | viability, T/C [39]: 104% | viability, T/C [40]: 98.9% | viability, T/C [41]: 93.4% | viability, T/C [42]: 121% | viability, T/C (second compound 0.3 µM, first compound 3.16 µM): 101% | viability, T/C (second compound 0.3 µM, first compound 10 µM): 85.9%
